Results from patent US7045665B2, “Glucopyranosyloxybenzylbenzene derivatives, medicinal compositions containing the same and intermediates for the preparation of the derivatives” (Kissei Pharmaceutical Co., Ltd., priority 2000, dated 2006).

Legend:
human SGLT2 = target: T1, human SGLT2 (Homo sapiens, UniProt P31639, I433V); assay: Assay for inhibitory effect on human SGLT2 activity (uptake of methyl-α-D-glucopyranoside); assay type: cell-based; conditions: COS-7 cells transiently expressing human SGLT2; uptake of methyl-α-D-(U-14C)glucopyranoside, 37° C., 2 hours
T1 construct: expressed in transfected cells; host or cells: COS-7 cells (RIKEN CELL BANK RCB0539), transient, electroporation
T1 sequence (P31639 1-672 I433V): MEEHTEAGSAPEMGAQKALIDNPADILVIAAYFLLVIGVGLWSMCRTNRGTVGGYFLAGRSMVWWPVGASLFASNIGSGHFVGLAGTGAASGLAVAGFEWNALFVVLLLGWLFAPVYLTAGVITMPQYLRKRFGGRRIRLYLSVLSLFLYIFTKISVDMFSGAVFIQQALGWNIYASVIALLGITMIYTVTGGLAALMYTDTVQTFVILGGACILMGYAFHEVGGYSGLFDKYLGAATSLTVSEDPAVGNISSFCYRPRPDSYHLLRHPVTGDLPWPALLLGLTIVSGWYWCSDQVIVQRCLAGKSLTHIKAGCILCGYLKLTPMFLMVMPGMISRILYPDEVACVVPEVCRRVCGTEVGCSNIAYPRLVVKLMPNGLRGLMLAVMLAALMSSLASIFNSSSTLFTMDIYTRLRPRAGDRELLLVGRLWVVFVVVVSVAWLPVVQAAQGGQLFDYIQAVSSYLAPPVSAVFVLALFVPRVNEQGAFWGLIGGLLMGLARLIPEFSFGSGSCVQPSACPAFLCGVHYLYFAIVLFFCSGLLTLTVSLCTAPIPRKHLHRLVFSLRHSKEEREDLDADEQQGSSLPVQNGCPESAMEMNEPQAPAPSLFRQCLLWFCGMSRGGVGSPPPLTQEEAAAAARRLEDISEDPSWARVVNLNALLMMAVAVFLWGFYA
Method: Assay for Inhibitory Effect on Human SGLT2 Activity
Preparation of the cDNA library for PCR amplification was performed by reverse transcription of a total RNA deprived from human kidney (Ori gene) with oligo dT as the primer, using […] Preamplification System (Gibco-BRL: LIFE TECHNOLOGIES). […] The amplified DNA fragment was ligated into pCR-Blunt (Invitrogen), a vector for cloning, according to standard method of the kit. […] The amplified DNA fragment was digested with restriction enzymes, Xho I and Hind III, and then purified with Wizard Purification System (Promega).
KL29, the plasmid coding human SGLT2, was transfected into COS-7 cells (RIKEN CELL BANK RCB0539) by electroporation. Electroporation was performed with GENE PULSER II (Bio-Rad Laboratories) under the condition: 0.290 kV, 975 μF, 2×10^6 cells of COS-7 cell and 20 μg of KL29 in 500 μL of OPTI-MEM I medium (Gibco-BRL: LIFE TECHNOLOGIES) in the 0.4 cm type cuvette. After the gene transfer, the cells were harvested by centrifugation and resuspended with OPTI-MEM I medium (1 mL/cuvette). To each well in 96-wells plate, 125 μL of this cell suspension was added.

[1] = tested on: urinary glucose excretion; assay: Assay for the facilitatory effect on urinary glucose excretion; assay type: in vivo; conditions: SD rats, 1 mg/kg intravenous, oral glucose 2 g/kg; in 24 hours per 200 g of body weight
Method: Assay for the Facilitatory Effect on Urinary Glucose Excretion
As experimental animal, overnight fasted SD rats (SLC., male, 7 weeks of age, 180–240 g) were used. Ten mg of test compound was suspended or dissolved in 300 μL of ethanol and then dissolved by adding of 1.2 mL of polyethylene glycol 400 and 1.5 mL of saline, and then 3.3 mg/mL solution was prepared. Three hundred μL of this solution was dissolved with 2.7 mL of the solution for dilution (saline:polyethylene glycol 400:ethanol=5:4:1) and then 0.33 mg/mL solution was prepared. After the body weights of rats were measured, the solution of test compound was intravenously injected to the tail vein at the dose of 3 mL/kg (1 mg/kg). For control, just only the solution (saline:polyethylene glycol 400:ethanol=5:4:1) was intravenously injected to the tail vein at the dose of 3 mL/kg. Immediately after intravenous injection to the tail vein, 200 g/L of glucose solution was orally administered to the rats at the dose of 10 mL/kg (2 g/kg). The intravenous injection to the tail vein was performed with 26 G injection needle and 1 mL syringe. The oral administration was performed with gastric tube for rat and 2.5 mL syringe. The head count in one group was 2 or 3. Collection of urine was performed in metabolic cage after the oral administration of glucose was finished. The sampling time for collection of urine was 24 hours after the oral administration of glucose. After the collection of urine was finished, the urine volume was recorded and the urinary glucose concentration was measured. The glucose concentration was measured with a kit for laboratory test: Glucose B-Test WAKO (Wako Pure Chemical Industries, Ltd.). The amount of urinary glucose excretion in 24 hours per 200 g of body weight was calculated from urine volume, urinary glucose concentration and body weight.

ICR mice = assay: Acute toxicity test; assay type: in vivo; conditions: male ICR mice, 2000 mg/kg subcutaneous, 5 animals
Method: Five weeks old male ICR mice (CLEA JAPAN, INC. 29–34 g, 5 animals in each group) were fasted for 4 hours, and 666 mg/mL of a suspension which was prepared by adding saline:polyethylene glycol 400:ethanol (5:4:1) to 2-[4-(2-hydroxyethyl)benzyl]phenyl β-D-glucopyranoside (the compound described in Example 10) was subcutaneously administered at the dose of 3 mL/kg (2000 mg/kg).

In the case of CCCOc1ccc(Cc2ccc(CO)cc2O[C@@H]2O[C@H](CO)[C@@H](O)[C@H](O)[C@H]2O)cc1 [Example 7, 5-Hydroxymethyl-2-(4-propoxybenzyl)phenyl β-D-glucopyranoside], the IC50 (human SGLT2) is reported as 140 nM and the “Amount of urinary glucose excretion” value [1] is reported as 109.1 mg.
OCCc1ccc(Cc2ccccc2O[C@@H]2O[C@H](CO)[C@@H](O)[C@H](O)[C@H]2O)cc1 [Example 10, 2-[4-(2-Hydroxyethyl)benzyl]phenyl β-D-glucopyranoside] was tested, and the IC50 (human SGLT2) was 210 nM, the “Amount of urinary glucose excretion” value [1] was 69.5 mg and the “Death until 24 hours after the administration” value (ICR mice) was “No death was observed”.
With OCCCc1ccc(Cc2ccccc2O[C@@H]2O[C@H](CO)[C@@H](O)[C@H](O)[C@H]2O)cc1 [Example 11, 2-[4-(3-Hydroxypropyl)benzyl]phenyl β-D-glucopyranoside] the IC50 (human SGLT2) was 75 nM.
In the case of CCc1ccc(Cc2ccc(CO)cc2O[C@@H]2O[C@H](CO)[C@@H](O)[C@H](O)[C@H]2O)cc1 [Example 8, 2-(4-Ethylbenzyl)-5-hydroxymethylphenyl β-D-glucopyranoside], the IC50 (human SGLT2) is reported as 8.1 nM and the “Amount of urinary glucose excretion” value [1] is reported as 238.9 mg.
With COc1ccc(Cc2ccccc2O[C@@H]2O[C@H](CO)[C@@H](O)[C@H](O)[C@H]2O)cc1 [Example 1, 2-(4-Methoxybenzyl)phenyl β-D-glucopyranoside] the “Amount of urinary glucose excretion” value [1] was 27.4 mg.
OCCc1ccc(Cc2ccc(CO)cc2O[C@@H]2O[C@H](CO)[C@@H](O)[C@H](O)[C@H]2O)cc1 [Example 9, 2-[4-(2-Hydroxyethyl)benzyl]-5-hydroxymethylphenyl β-D-glucopyranoside] showed an IC50 (human SGLT2) of 27 nM.
